Data set [1] in a line: Pharmacokinetics of nafamostat in male rats (whole blood, LC/MS/MS). The class given is in vivo. The protocol:
Example 1: Pharmacokinetic Studies. The pharmacokinetics of nafamostat were evaluated in male rats following an intravenous dose of 1 mg/kg or an oral dose of 9 mg/kg or 10 mg/kg. Nafamostat whole blood concentrations were determined by LC/MS/MS. Following intravenous dosing, nafamostat appeared in the blood of rats, with average (± SD) maximum whole blood concentrations (189 ± 54 ng/mL) being reached at the first measured time point (0.0830 hours) in all animals. […] The AUC0-t was 81.8 ± 29 ng̬·h/mL. The pharmacokinetic parameters were generated using a standard, non-compartmental model. Note that the half-life reported in this section is the terminal half-life and the alpha phase half-life is much shorter (estimated to be about 3 minutes).
After oral dosing, nafamostat appeared in the blood for the majority of the rats, with the whole blood concentrations being low and transient. The average (± SD) maximum plasma concentrations were 6.40 ± 6.2 ng/mL and 6.09 ± 3.6 ng/mL for the 9 mg/kg and 10 mg/kg doses, respectively, being reached between 0.250 hours and 0.500 hours. Due to the transient whole blood concentration-time profiles, the terminal t½ could not be calculated in the majority of the subjects but is approximated to be about 3 hours. The AUC0-t was 8.80 ng·h/mL (n=1) and 12.6 ± 11 ng·h/mL (n=3) for the two doses, respectively.

The nature of data set [2]: Pharmacokinetics of oral nafamostat mesylate solution in healthy male and female subjects. It counts as in vivo, human. As to the method: Part 1: Single Ascending Dose Study. Male and female subjects aged 18 - 70 were administered a single dose of 50 mg nafamostat mesylate on day 1, 100 mg nafamostat mesylate on day 3 or 4, and 200 mg nafamostat mesylate on day 5, 6, or 7. Nafamostat mesylate was administered in the form of an oral solution. […]
Part 2: Multiple Ascending Dose Study. Subjects were divided into 2 cohorts. Cohort 1 received an oral solution of 100 mg/mL nafamostat mesylate twice a day for 5 days with pharmacokinetic evaluations on each day. […] Safety evaluations continued for 48 hours after the last dose. After review and evidence of safety, Cohort 2 received an oral solution of 200 mg/mL nafamostat mesylate twice a day for 5 days with pharmacokinetic evaluations on each day. […] Safety evaluations continued for 48 hours after the last dose.
Part 3: Single Fixed Dose Administered Twice Daily for 5 Days. Six subjects, different than the subjects from Parts 1 and 2, received an oral solution of 200 mg/mL nafamostat mesylate twice a day for 5 days. Blood samples were obtained at pre-dose (0 hr.) and at 0.5, 1, 2, 3, 4, 6, and 8 hours after the first dose on Day 1 and again after the first dose on Day 5. […]
Oral solutions received by each subject were prepared by dissolving nafamostat mesylate in about 100 mL of EMETROL®/water and provided at a volume to deliver the indicated dosage. There was no placebo formulation.
Nafamostat pharmacokinetics was evaluated at the 200 mg dose levels.

For the next data set, the target named is hERG K+ channel (Homo sapiens, UniProt Q12809). The experiment in a line: cell-based. The protocol:
Effects of nafamostat in an hERG assay: In an in vitro non-GLP screening study, effects of nafamostat on the hERG K^+ channel currents were evaluated in voltage-clamped human embryonic kidney cells at room temperature. […] A full ICH-Compliant hERG study and in vivo cardiovascular safety pharmacology study is be performed as part of the IND-enabling program.

The test system of data set [3] is healthy male and female subjects. The experiment in a line: Safety and tolerability (adverse events) of oral nafamostat mesylate in healthy subjects. The class given is in vivo, human. The protocol:
Part 1: Single Ascending Dose Study. Male and female subjects aged 18 - 70 were administered a single dose of 50 mg nafamostat mesylate on day 1, 100 mg nafamostat mesylate on day 3 or 4, and 200 mg nafamostat mesylate on day 5, 6, or 7. Nafamostat mesylate was administered in the form of an oral solution. Blood samples were obtained at pre-dose (0 hr.) and at 0.5, 1, 2, 3, 4, 6, 8, 12, and 24 hours after receiving the nafamostat mesylate oral solution.
Part 2: Multiple Ascending Dose Study. Subjects were divided into 2 cohorts. Cohort 1 received an oral solution of 100 mg/mL nafamostat mesylate twice a day for 5 days with pharmacokinetic evaluations on each day. Blood samples were obtained at pre-dose (0 hr.) and at 0.5, 1, 2, 3, 4, 6, 8, 12, and 24 hours after receiving the nafamostat mesylate oral solution as well as after the first dose on Day 5. Safety evaluations continued for 48 hours after the last dose. After review and evidence of safety, Cohort 2 received an oral solution of 200 mg/mL nafamostat mesylate twice a day for 5 days with pharmacokinetic evaluations on each day. Blood samples were obtained at pre-dose (0 hr.) and at 0.5, 1, 2, 3, 4, 6, 8, 12, and 24 hours after receiving the first dose of nafamostat mesylate oral solution as well as after the first dose on Day 5. Safety evaluations continued for 48 hours after the last dose.
Part 3: Single Fixed Dose Administered Twice Daily for 5 Days. Six subjects, different than the subjects from Parts 1 and 2, received an oral solution of 200 mg/mL nafamostat mesylate twice a day for 5 days. Blood samples were obtained at pre-dose (0 hr.) and at 0.5, 1, 2, 3, 4, 6, and 8 hours after the first dose on Day 1 and again after the first dose on Day 5.
Part 4: Single Ascending Dose Study. Three subjects were administered a single dose of an oral solution of 400 mg/mL nafamostat mesylate. After review and evidence of safety, a second set of three subjects received a single dose of an oral solution of 600 mg/mL nafamostat mesylate. Blood samples were obtained for pharmacokinetic analysis at pre-dose (0 hr.) and at 0.25, 0.5, 0.75, 1, 1.5, 2, 2.5, 3, 4, 6, and 8 hours after receiving the nafamostat mesylate dose.
Evaluations of subjects included incidence and severity of adverse events (AEs), vital signs (pulse rate, blood pressure, respiratory rate), 12-lead electrocardiogram, electrocardiogram telemetry or MCOT cardiac patch, continuous pulse oximetry, clinical laboratory tests (CBC-diff, complete metabolic panel including LFTs, PT, PTT), physical examination.

Data set [4] has as its system S. typhimurium strains TA98, TA100, TA1535, and TA97a and Escherichia coli strain WP2uvrA76. In words: Bacterial Reverse Mutation (Ames) Screening Assay. It counts as cell-based. The settings on record: with or without S9, up to 25 mg/mL. The protocol:
Bacterial Reverse Mutation (Ames) Screening Assay: This in vitro non-GLP study evaluated the cytotoxic and mutagenic activity of nafamostat in S. typhimurium strains TA98, TA100, TA1535, and TA97a and in the Escherichia coli (E. coli) strain WP2uvrA76. Two independent assays were conducted using the plate incorporation method with and without S9 metabolic activation. The highest concentration tested was 25 mg/mL. The vehicle control, sterile saline, was tested under the same conditions.

[5] abbreviates: human, oral, 200 mg dose levels.

Results on 1 compound are retold here after patent publication US20230190697A1, “METHODS FOR TREATING VIRAL INFECTIONS WITH NAFAMOSTAT” (priority 2020, published 2023).

Structures are written as SMILES. “And” between values parts separate entries of the source, which are not always exact repeats. Equal entries are not always repeated. “Also recorded” adds a separate entry of the source. Where two headings read alike, the source gives them in different places.

Chain of hERG K+ channel (Q12809 whole entry): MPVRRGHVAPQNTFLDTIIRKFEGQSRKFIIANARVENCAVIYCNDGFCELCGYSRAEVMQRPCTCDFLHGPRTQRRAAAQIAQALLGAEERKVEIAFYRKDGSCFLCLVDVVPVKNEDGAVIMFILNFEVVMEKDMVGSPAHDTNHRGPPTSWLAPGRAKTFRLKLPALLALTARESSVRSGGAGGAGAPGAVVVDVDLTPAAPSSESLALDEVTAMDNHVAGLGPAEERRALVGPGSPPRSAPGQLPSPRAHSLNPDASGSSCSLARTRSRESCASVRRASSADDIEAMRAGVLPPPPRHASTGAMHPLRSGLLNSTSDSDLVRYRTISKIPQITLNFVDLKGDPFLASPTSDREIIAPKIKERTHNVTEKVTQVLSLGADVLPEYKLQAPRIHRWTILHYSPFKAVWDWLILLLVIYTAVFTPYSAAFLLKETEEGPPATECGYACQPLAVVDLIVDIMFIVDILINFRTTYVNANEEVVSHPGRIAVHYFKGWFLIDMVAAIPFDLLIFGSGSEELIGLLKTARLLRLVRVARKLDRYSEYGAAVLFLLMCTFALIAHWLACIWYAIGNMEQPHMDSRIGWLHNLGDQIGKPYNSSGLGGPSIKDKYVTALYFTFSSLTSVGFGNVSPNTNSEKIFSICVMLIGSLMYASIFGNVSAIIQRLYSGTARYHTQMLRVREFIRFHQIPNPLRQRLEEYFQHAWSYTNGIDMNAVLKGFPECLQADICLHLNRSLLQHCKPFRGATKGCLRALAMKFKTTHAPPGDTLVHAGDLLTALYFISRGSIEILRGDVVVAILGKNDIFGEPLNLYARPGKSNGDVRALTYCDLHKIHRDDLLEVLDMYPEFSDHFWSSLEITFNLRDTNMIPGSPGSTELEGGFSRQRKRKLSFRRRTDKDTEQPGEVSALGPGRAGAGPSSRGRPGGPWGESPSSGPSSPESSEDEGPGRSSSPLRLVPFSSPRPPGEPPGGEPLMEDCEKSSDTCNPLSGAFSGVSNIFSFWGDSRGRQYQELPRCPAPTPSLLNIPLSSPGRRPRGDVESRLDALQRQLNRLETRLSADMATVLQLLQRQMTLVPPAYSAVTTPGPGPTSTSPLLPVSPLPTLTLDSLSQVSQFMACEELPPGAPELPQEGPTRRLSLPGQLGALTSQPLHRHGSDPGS

Turning to `N=C(N)c1ccc2cc(OC(=O)c3ccc(N=C(N)N)cc3)ccc2c1` [nafamostat], the “average (± SD) maximum whole blood concentration” value in data set [1] (male rats, intravenous 1 mg/kg) is 189 ± 54 ng/mL. Moreover, in data set [1] (male rats, intravenous 1 mg/kg), the clearance entry is “high and greater than hepatic blood flow in rats”. Moreover, in data set [1] (male rats, intravenous 1 mg/kg), the “time of maximum whole blood concentration (first measured time point)” value was determined as 0.0830 h. Also, the “average (± SD) maximum plasma concentration” value was 6.40 ± 6.2 ng/mL in data set [1] (male rats, oral 9 mg/kg) and 6.09 ± 3.6 ng/mL in data set [1] (male rats, oral 10 mg/kg). Also, the half-life was about 0.05 h in data set [1] (male, rat, whole blood, iv, 1 mg/kg, male rats, intravenous 1 mg/kg, estimated, read-out: alpha phase half-life); 1.84 ± 1.3 h in data set [1] (male, rat, whole blood, iv, 1 mg/kg, male rats, intravenous 1 mg/kg, non-compartmental, read-out: terminal t½ (converted)); about 3 h in data set [1] (male, rat, whole blood, po, male rats, oral dosing, approximated, read-out: terminal t½ (converted)). In data set [1] (male, rat, whole blood, rats, oral vs intravenous, read-out: overall absolute oral bioavailability), the bioavailability is 1.16 ± 1.1%. Besides, the AUC(0-t) in data set [1] (rat, whole blood, male rats, intravenous 1 mg/kg) was 81.8 ± 29 ng·h/mL; in data set [1] (rat, whole blood, male rats, oral 9 mg/kg (n=1)) it was 8.8 ng·h/mL; in data set [1] (rat, whole blood, male rats, oral 10 mg/kg (n=3)), 12.6 ± 11 ng·h/mL. Further, the “PK measurements (nafamostat concentration), all except three samples, below LLQ” value in data set [2] (setting [5]) is under 0.1 ng/mL. Moreover, the “nafamostat found in the two outlier samples taken after at least one daily dose” value in data set [2] (setting [5]) was 0.125 ng/mL and 0.101 ng/mL. Moreover, in data set [2] (oral administration), the “nafamostat detected in blood samples” value is “No nafamostat was detected in blood samples”. Besides, the “therapeutically-relevant blood plasma levels” value in data set [2] (subjects administered oral nafamostat) was “Therapeutically-relevant blood plasma levels were not observed”. The compound further showed an IC50 on hERG K+ channel of over 50 µM. The “adverse events attributable to nafamostat” value in data set [3] (human subjects, oral solution) is “no adverse events that could be attributed to nafamostat reported”. Also, in data set [3] (oral, up to 600 mg nafamostat mesylate), the adverse events entry is given as “no adverse events are observed”. Further, the “Drug-Related?” value in data set [3] (per subject (12-17), adverse event) was “No”. The “Adverse Event” value in data set [3] (per subject (12-17), oral nafamostat mesylate solution) is recorded as “Intermittent headache; also recorded: Thrush; also recorded: Tonsillitis right; also recorded: Right thigh redness, swelling; also recorded: Nausea; also recorded: Orthostatic tachycardia* *; also recorded: Chest pain (mild, intermittent)”. For the same compound, in data set [3] (per subject (12-17), severity of adverse event), the Severity result was “Mild (4×) and Moderate (3×)”. Besides, the “mutagenic activity (mean number of revertants per plate)” value in data set [4] (any test strain) was “no positive increases in the mean number of revertants”. The cytotoxic activity result in data set [4] (plate incorporation) is listed as “not cytotoxic”.

What is called bioavailability is dose-corrected exposure relative to a reference, in per cent. The term AUC(0-t) denotes the area under the concentration-time curve up to a stated or last time point. As usually defined, the IC50 is the concentration needed to halve the response being measured. Higher therefore signals weaker potency.
